Reference: patent US6812239B2, “Method of identification of inhibitors of PDE1C and methods of treatment of diabetes” (Albert Einstein College of Medicine of Yeshiva University, priority 1999, dated 2004)
Several values for one entry are separate records, joined by “and”; a condition that tells them apart may be missing. Equal values may be shown once. Entries after “also recorded” stand apart in the source; their conditions may differ.

Experiments:
βTC3 cells = experiment: Insulin release from βTC3 cells by radioimmunoassay; assay type: cell-based, Mus musculus; settings: 16.7 mM glucose; for Effect on glucose induced insulin secretion (in words): 2 hr incubation; for Insulin secretion, % of the cellular insulin content / Insulin secretion, % of the insulin content of the cells: 2 hr
Description: The cultured cells are starved for glucose in Hepes buffered Krebs-Ringer solution for 1 hr. Subsequently, 16.7 mM glucose and the potential phosphodiesterase inhibitors are added to the cells in Hepes buffered Krebs-Ringer solution and the cells are incubated for 2 additional hr. Each condition is assayed in triplicate. Insulin content of the supernatant after centrifugation, and of the cells after acid extraction, is determined by a radioimmunoassay. Control samples are treated with no potential inhibitor compound or, for control or calibration purposes, with compounds that will inhibit other PDE isozymes but that are known to lack PDE1C inhibitory activity or, for examining glucose-independent effects of potential inhibitor compound alone.
Cell Culture, treatments and measurements of insulin secretion. βTC3 cells were cultured as described and early passages were maintained (D'Ambra, R., Surana, M., Efrat, S., Starr, R. G., and Fleischer, N. (1990) Endocrinology 126, 2815-2822). For measurements of insulin secretion cells were plated onto a 12-well culture dishes 3-4 days, and refed 16 hr, prior to the assay. On the experiment day, cells were washed in Hepes-buffered Krebs-Ringer solution, and incubated in this glucose-free solution for 1 hr. Subsequently, 16.7 mM glucose and, when relevant, PDE inhibitors were added to the cells in Hepes-buffered Krebs-Ringer solution and the cells were incubated for 2 additional hr. Each condition was assayed in triplicates. Insulin content of the supernatant after centrifugation, and of the cells after acid extraction, was determined by a radioimmunoassay as described (D'Ambra, R., Surana, M., Efrat, S., Starr, R. G., and Fleischer, N. (1990) Endocrinology 126, 2815-2822).
Cyclic nucleotide phosphodiesterase inhibitors that augment insulin secretion were identified using used βTC3 insulinoma cells. For measurements of insulin secretion cells were plated onto a 12-well culture dishes 3-4 days, and refed 16 hr, prior to the assay. On the experiment day, cells were washed in Hepes-buffered Krebs-Ringer solution, and incubated in this glucose-free solution for 1 hour. Subsequently, 16.7 mM glucose and, when relevant, phosphodiesterase inhibitors were added to the cells in Hepes-buffered Krebs-Ringer solution and the cells were incubated for 2 additional hours. Each condition was assayed in triplicates. Insulin content of the supernatant after centrifugation, and of the cells after acid extraction, was determined by a radioimmunoassay.

PDE1C of βTC3 cells = PDE1C of βTC3 cells (Mus musculus, UniProt Q64338); experiment: cAMP PDE activity of mono-Q FPLC peak I (PDE1C) of βTC3 cells; assay type: biochemical; settings: for IC50: 1 μM cAMP substrate, average ± standard deviation, read-out: IC50 values Peak I PDE1
Description: (§1) Mono-Q-FPLC fractionation of PDE activities. Cells were scraped and homogenized in a buffer containing 50 mM Tris 7.5, 250 mM sucrose, 5 mM MgCl2, 0.2 μg/ml aprotinin, leupeptin and pepstatin, and 1 mM 4-(2-aminoethyl)benzenesulfonyl fluoride. Following a 30 min 150,000 g centrifugation, the supernatant was loaded onto a Pharmacia Mono-Q anion exchange column and PDE activities were fractionated by FPLC along a two step salt gradient. Column buffers were (A) 50 mM Tris 7.5 and (B) 50 mM Tris 7.5, 0.5 M NaCl. The gradient consisted of a 10 min increase to 0.2 M NaCl (20% B), and a 90 min increase to 0.5 M NaCl (100% B). One ml fractions were collected.
(§2) PDE assays and kinetic measurements. PDE assays were performed in duplicate as described (40). Analysis and plotting of kinetic data was performed by using the computer program kaleidagraph. The contributions of the high and low affinities cGMP PDEs of peak I to total PDE activity of this peak at a given substrate concentration were calculated using the formula: […]

PDE3 = settings: Beavo 1988; read-out: IC50 for inhibition of PDE3; cited from earlier work
[1] = tested on: soluble PDE activities of βTC3 cells; experiment: Overall PDE activity in inhibitor-treated βTC3 cells; assay type: cell-based; settings: Mus musculus
Description: An estimate for the ability of the inhibitors to permeate and inhibit PDEs within cells was provided by measurements of overall PDE activity in inhibitor-treated cells. These measurements provide an underestimate of the in vivo effects of the inhibitors due to inhibitor dilution, degradation, and release of inhibitor bound to PDEs, that occur during extraction, and are more pronounced in particulate fractions.

Peak III PDE4 = experiment: cAMP PDE activity of mono-Q FPLC peak III of βTC3 cells; assay type: biochemical, Mus musculus; settings: 2.5 μM rolipram, substrate cAMP 1 μM
Description: as §1, §2

PDE1C = settings: unlike PDE1A and 1B; cited from earlier work
[2] = tested on: glucose induced insulin secretion; settings: Parker et al. 1995; cited from earlier work
[3] = tested on: cGMP PDE activities of peak I (PDE1C and cGMP-specific PDE); experiment: cGMP PDE activity of mono-Q FPLC peak I of βTC3 cells; assay type: biochemical, Mus musculus; settings: 50 μM 8 MM-IBMX
Description: as §1, §2

involved PDE families = settings: cited from earlier work

Chain of PDE1C of βTC3 cells (Q64338 151-528 limits assumed): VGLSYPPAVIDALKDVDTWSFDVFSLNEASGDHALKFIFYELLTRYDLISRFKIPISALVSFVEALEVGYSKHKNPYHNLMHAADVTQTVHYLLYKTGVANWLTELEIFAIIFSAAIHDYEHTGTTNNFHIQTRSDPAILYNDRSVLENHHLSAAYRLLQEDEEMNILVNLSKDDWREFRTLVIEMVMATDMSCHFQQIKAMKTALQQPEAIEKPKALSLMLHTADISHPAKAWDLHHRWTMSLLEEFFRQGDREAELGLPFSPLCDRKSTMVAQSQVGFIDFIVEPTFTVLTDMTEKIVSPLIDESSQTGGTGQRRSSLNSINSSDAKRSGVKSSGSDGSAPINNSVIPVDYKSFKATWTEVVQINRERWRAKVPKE

Q: With `Cc1[nH]c(=O)c(C#N)cc1-c1ccncc1` [Milrinone, 1,6-dihydro-2-methyl-6-oxo-(3,4′-bipyridine)-5-carbonitrile] as the compound, how does the “Effect on glucose induced insulin secretion (in words)” value (“Effect” below) (βTC3 cells) read?
A: did not affect insulin secretion

Q: What about the IC50 (PDE1C of βTC3 cells) of the same compound?
A: > 100 µM

Q: And the IC50 (PDE3)?
A: 0.3 µM

Q: With `COc1cc2c(cc1OC)-c1c/c(=N\c3c(C)cc(C)cc3C)n(C)c(=O)n1CC2` [trequinsin] as the compound, how does the “Effect” value (βTC3 cells) read?
A: no effect; also recorded: did not

Q: And the “Insulin secretion, % of the cellular insulin content” value (βTC3 cells; inhibitor 30 nM)?
A: 7%

Q: Which results are given for `CCCCOc1cc(CC2CNC(=O)N2)ccc1OC` (stereo not shown) [RO20-1724, 4-(3-butoxy-4-methoxybenzyl)-2-imidazolidinone]?
A: Effect on glucose induced insulin secretion (in words) (βTC3 cells): limited effect; also recorded: did not; Insulin secretion, % of the cellular insulin content (βTC3 cells; inhibitor 0.2 mM): 9.6%

Q: For `COc1ccc(C2CNC(=O)C2)cc1OC1CCCC1` (stereo not shown) [Rolipram, 4-[3-(cyclopentyloxy)-4-methoxyphenyl]-2-pyrrolidinone], which inhibition at 15 µM ([1]; inhibitor applied to cells at 15 μM, read-out: Inhibition of soluble cAMP PDE activities in inhibitor-treated cells) is on record?
A: 37%

Q: And the “Insulin secretion, % of the insulin content of the cells” value (βTC3 cells; over 10^4 fold increase in concentrations, up to 15 μM)?
A: 7.9-10.7%

Q: What about the “Inhibition by Rolipram, peak III” value (Peak III PDE4) of the same compound?
A: 97%

Q: What about the “Inhibition by Rolipram, peak III” value (Peak III PDE4; listed as rolipram) of the same compound?
A: abolished

Q: And the IC50 (PDE1C of βTC3 cells)?
A: > 100 µM

Q: With `CCOC(=O)C1=C[C@]2(CC)CCCN3CCc4c(n1c1ccccc41)[C@@H]32` [Vinpocetine, eburnamenine-14-carboxylic acid ethyl ester] as the compound, how does the “Sensitivity of PDE1C to inhibitor (in words)” value (PDE1C) read?
A: resistant

Q: What about the “Stimulation of glucose induced insulin secretion (in words)” value [2] of the same compound?
A: ineffective simulator of glucose induced insulin secretion

Q: What about the IC50 (PDE1C of βTC3 cells) of the same compound?
A: > 100 µM

Q: Which results are given for `CCCOc1ccccc1-c1nc2nn[nH]c2c(=O)[nH]1` [Zaprinast, zaprinast]?
A: Sensitivity of PDE1C to inhibitor (in words) (PDE1C): sensitive; Effect on glucose induced insulin secretion (in words) (βTC3 cells): enhanced glucose induced secretion; also recorded: partial stimulatory effects; Insulin secretion, % of the cellular insulin content (βTC3 cells; inhibitor 0.5 mM): 6.2%; IC50 (PDE1C of βTC3 cells): 4.5 µM

Q: For `COCc1nc2c([nH]1)c(=O)n(C)c(=O)n2CC(C)C` [8 MM-IBMX, 8-methoxymethyl-1-methyl-3-(2-methylpropyl)xanthine], which “Inhibition by 8 MM-IBMX, peak I” value ([3]; substrate cGMP 0.1 μM) is on record?
A: 82%

Q: What about the “Inhibition by 8 MM-IBMX, peak I” value ([3]; substrate cGMP 10 μM) of the same compound?
A: 57%

Q: And the inhibition at 500 µM ([1]; inhibitor applied to cells at 0.5 mM, read-out: Inhibition of soluble cGMP PDE activities in inhibitor-treated cells)?
A: 30%

Q: And the “Effect” value (βTC3 cells)?
A: strongly augmented insulin secretion; also recorded: dose dependent augmentation of insulin secretion

Q: What about the “Effect” value (βTC3 cells; listed as 8-methoxymethyl-isobutylmethylxanthine) of the same compound?
A: dose dependent augmentation of insulin secretion

Q: And the “Insulin secretion, % of the cellular insulin content” value (βTC3 cells; inhibitor 0.5 mM)?
A: 17.2%

Q: What about the “Insulin secretion, % of the insulin content of the cells” value (βTC3 cells; inhibitor […]) of the same compound?
A: 9.3%

Q: What about the IC50 (PDE1C of βTC3 cells) of the same compound?
A: 7.5 µM

Q: What about the inhibition at 50 µM (PDE1C of βTC3 cells; 50 μM 8 MM-IBMX, substrate cAMP 0.5 μM) of the same compound?
A: 80%

Q: For `CC(C)Cn1c(=O)n(C)c(=O)c2[nH]cnc21` [IBMX, 1-methyl-3-isobutylxanthine], which “Insulin secretion, % of the cellular insulin content” value (βTC3 cells; inhibitor 0.5 mM) is on record?
A: 8% and 18%

Q: And the “Insulin secretion, % of the cellular insulin content” value (βTC3 cells; inhibitor 0.5 mM, listed as isobutylmethylxanthine)?
A: 15.2%

Q: What about the “IC50 values for the involved PDE families” value (involved PDE families) of the same compound?
A: low μM range
